Laboratory results: patent US7297704B2, “Cycloalkyfused indole, benzothiophene, benzofuran and idene derivatives” (Wyeth, priority 2005, dated 2007)
Structures can show the parent of a compound that is named as a salt. Where two headings read alike, the source gives them in different places.

Experiments:
h-5-HT-T = h-5-HT-T (Homo sapiens, UniProt P31645); test: h-5-HT-T IC50 (Table 1, no method described)
serotonin transporter = target: T1, serotonin transporter (Rattus norvegicus, UniProt P31652); test: 3H-paroxetine binding to the serotonin transporter, rat frontal cortical membranes; conditions: values printed without parentheses, 3H-paroxetine 0.1 nM, read-out: rb-5-HH-T, Ki
T1 construct: frontal cortical membranes prepared from male S.D. rats; from tissue; host or cells: rat frontal cortex membranes (male Sprague-Dawley)
T1 sequence (P31652 whole entry): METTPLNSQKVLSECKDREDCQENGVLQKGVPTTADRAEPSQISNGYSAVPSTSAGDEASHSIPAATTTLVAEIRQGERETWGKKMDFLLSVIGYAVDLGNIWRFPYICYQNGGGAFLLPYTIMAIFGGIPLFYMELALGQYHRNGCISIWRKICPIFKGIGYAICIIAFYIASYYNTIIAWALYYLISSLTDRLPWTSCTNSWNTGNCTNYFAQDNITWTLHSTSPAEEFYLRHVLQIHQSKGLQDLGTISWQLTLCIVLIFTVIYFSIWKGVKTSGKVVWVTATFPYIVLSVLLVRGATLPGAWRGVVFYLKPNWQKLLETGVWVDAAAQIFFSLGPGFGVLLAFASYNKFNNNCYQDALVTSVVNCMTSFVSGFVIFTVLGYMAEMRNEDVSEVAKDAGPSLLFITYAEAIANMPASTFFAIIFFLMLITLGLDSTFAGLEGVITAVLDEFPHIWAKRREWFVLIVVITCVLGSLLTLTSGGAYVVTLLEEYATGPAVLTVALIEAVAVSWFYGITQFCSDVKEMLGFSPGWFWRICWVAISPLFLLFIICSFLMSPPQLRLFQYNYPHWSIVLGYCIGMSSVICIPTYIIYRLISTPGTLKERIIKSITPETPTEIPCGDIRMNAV
Experimental: A protocol similar to that used by Cheetham et al. (Neuropharmacol. 32:737, 1993) was used to determine the affinity of compounds for the serotonin transporter. Briefly, frontal cortical membranes prepared from male S.D. rats were incubated with ^3H-paroxetine (0.1 nM) for 60 min at 25° C. All tubes also contained either vehicle, test compound (one to eight concentrations), or a saturating concentration of fluoxetine (10 μM) to define […]. All reactions are terminated by the addition of ice cold Tris buffer followed by rapid filtration using a Tom Tech filtration device to separate bound from free ^3H-paroxetine. Bound radioactivity was quantitated using a Wallac 1205 Beta Plate® counter. Nonlinear regression analysis was used to determine IC50 values which were converted to Ki values using the method of Cheng and Prusoff (Biochem. Pharmacol. 22: 3099, 1973); […].

Human 5-HT1A Receptor [1] = target: T2, Human 5-HT1A Receptor (Homo sapiens, UniProt P08908); test: cAMP RIA in human 5-HT1A receptor cell line; format: cell-based; conditions: CHO cells; for Emax: superscript c, read-out: c-AMP, (Emax)^c; for Emax / EC50: forskolin stimulated cAMP; for EC50: superscript a, read-out: c-AMP, (EC50)^a
T2 construct: expressed in transfected cells; host or cells: CHO cells
T2 sequence (P08908 1-422): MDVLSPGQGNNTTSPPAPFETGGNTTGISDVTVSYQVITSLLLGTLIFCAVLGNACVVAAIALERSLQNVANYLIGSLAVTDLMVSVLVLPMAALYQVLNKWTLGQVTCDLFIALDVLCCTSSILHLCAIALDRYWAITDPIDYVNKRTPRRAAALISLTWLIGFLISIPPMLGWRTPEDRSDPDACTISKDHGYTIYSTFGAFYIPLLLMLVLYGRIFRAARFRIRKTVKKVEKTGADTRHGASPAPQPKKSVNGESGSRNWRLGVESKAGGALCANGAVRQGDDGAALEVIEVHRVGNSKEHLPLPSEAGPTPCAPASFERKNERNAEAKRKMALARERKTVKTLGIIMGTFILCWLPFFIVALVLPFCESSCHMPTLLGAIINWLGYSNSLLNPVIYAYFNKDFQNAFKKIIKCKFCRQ
Experimental: Stably transfected CHO cells were grown in DMEM containing 10% heat inactivated FBS and non-essential amino acids. The cells were plated at a density of 10^6 cells per well in a 96 well plate and incubated for 2 days in a CO2 incubator. On the second day, the media was replaced with 0.1 ml Krebs and incubated 15 minutes at 37° C. The media was then replaced with Krebs buffer containing 500 uM IBMX and incubated 5 minutes at 37° C. Wells were treated with forskolin (1 uM final conc) followed immediately by test compound (0.1 and 1 uM for initial screen) and incubated for an additional 10 min at 37° C. Reaction was terminated by removal of the media and addition of 0.5 ml ice cold assay buffer (supplied in RIA kit). Plates are stored at −20° C. prior to assessment of cAMP formation by RIA. Compounds shown to have no agonist activities were further analyzed for ability to reverse agonist activity. In separate experiments, 6 concentrations of antagonist were preincubated for 20 min prior to the addition of agonist and forskolin. Cells were harvested as described. The cAMP kit is supplied by Amersham and the RIA is performed as per kit instructions. In the initial screen, percent inhibition of forskolin stimulated cAMP was measured. In the secondary screen, IC50 of reversal of agonist activity was measured. Calculations of IC50 were performed by GraphPad Prism. Serotonin, BMY 7378, Buspirone, and 8-OH-DPAT were used as reference compounds.

Human 5-HT1A Receptor [2] = target: T2, Human 5-HT1A Receptor; test: 8-OH-DPAT binding, human 5-HT1A receptor cell line; conditions: stably transfected CHO cells, 8-OH-DPAT ligand 1.5 nM; read-out: h5-HT1A Affinity, Ki
Experimental: Stably transfected CHO cells were grown in DMEM containing 10% heat inactivated FBS and non-essential amino acids. Cells were scraped off the plate, transferred to centrifuge tubes, and washed twice by centrifugation (2000 rpm for 10 min., 4° C.) in buffer (50 mM Tris, pH 7.5). The resulting pellets were aliquoted and placed at −80° C. On day of assay, the cells were thawed on ice, and resuspended in buffer. The binding assay was performed in a 96 well microtiter plate in a total volume of […]. Non-specific binding was determined in the presence of […] 5HT; final ligand concentration was 1.5 nM. Following a 30 min. incubation at room temperature, the reaction was terminated by the addition of ice cold buffer and rapid filtration through a GF/B filter presoaked for 30 min. in 0.5% PEI. Compounds were initially tested in a single point assay to determine percent inhibition at […]. Subsequently, Ki values were determined for compounds defined to be active. Percent inhibition Ki was determined by RFComp (Lundon Software), with Serotonin 8-OH-DPAT as the reference compounds.

h-5-HT-T, sequence (P31645 whole entry): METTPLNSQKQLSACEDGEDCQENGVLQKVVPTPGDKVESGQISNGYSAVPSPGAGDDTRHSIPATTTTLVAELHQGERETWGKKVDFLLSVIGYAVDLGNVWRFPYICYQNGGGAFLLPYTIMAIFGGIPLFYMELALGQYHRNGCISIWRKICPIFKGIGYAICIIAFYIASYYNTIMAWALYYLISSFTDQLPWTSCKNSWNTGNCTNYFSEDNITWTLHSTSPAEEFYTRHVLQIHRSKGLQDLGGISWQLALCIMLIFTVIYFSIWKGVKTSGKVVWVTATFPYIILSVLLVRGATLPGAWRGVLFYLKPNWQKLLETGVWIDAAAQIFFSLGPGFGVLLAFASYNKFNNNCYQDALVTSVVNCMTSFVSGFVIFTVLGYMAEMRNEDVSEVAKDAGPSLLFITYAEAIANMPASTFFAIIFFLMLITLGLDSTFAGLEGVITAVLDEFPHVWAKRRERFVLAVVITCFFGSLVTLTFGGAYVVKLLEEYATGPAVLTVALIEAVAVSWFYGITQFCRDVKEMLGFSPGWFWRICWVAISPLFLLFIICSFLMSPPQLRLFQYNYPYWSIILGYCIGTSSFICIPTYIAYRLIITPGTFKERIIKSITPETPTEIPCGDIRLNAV

| Structure (SMILES) | IC50 (h-5-HT-T) | Ki (serotonin transporter) | Emax (Human 5-HT1A Receptor [1]) | Ki (Human 5-HT1A Receptor [2]) | EC50 (Human 5-HT1A Receptor [1]) | IC50 (Human 5-HT1A Receptor [1]; superscript b, reversal of agonist activity, read-out: c-AMP, (IC50)^b) | Emax (Human 5-HT1A Receptor [1]; CHO) |
| --- | --- | --- | --- | --- | --- | --- | --- |
| CCC(C)N(C[C@@H]1CCc2[nH]c3ccc(F)cc3c2C1)C[C@H]1COc2ccc3nc(C)ccc3c2O1 (stereo partly drawn) [Example 58, N-{[(3R)-6-Fluoro-2,3,4,9-tetrahydro-1H-carbazol-3-yl]methyl}-N-{[(2S)-8-methyl-2,3-dihydro[1,4]dioxino[2,3-f]quinolin-2-yl]methyl}butan-2-amine monohydrochloride monohydrate] | 113 ± 22.5 nM | 358 nM | 22% | 1190 nM |  |  |  |
| Cc1ccc2c3c(ccc2n1)OC[C@H](CN[C@@H]1CCc2c([nH]c4ccccc24)C1)O3 (single isomer, unassigned) [Example 44, dihydrochloride] | 22.1 ± 2.51 nM |  | 74% | 620 nM | 225 nM |  |  |
| Cc1ccc2c3c(ccc2n1)OC[C@H](CN(CC1CCc2[nH]c4ccc(F)cc4c2C1)C1CCC1)O3 (stereo partly drawn) [Example 53, N-[(6-Fluoro-2,3,4,9-tetrahydro-1H-carbazol-3-yl)methyl]-N-{[(2S)-8-methyl-2,3-dihydro[1,4]dioxino[2,3-f]quinolin-2-yl]methyl}cyclobutanamine dihydrochloride dihydrate] | 39.1 ± 3.85 nM | 498 nM | 68% | 5740 nM | 126 nM |  |  |
| Cc1ccc2c3c(ccc2n1)OC[C@H](CN(C)C[C@H]1CCc2c(c4cc(F)ccc4n2C)C1)O3 [Example 68, {[(3S)-6-Fluoro-9-methyl-2,3,4,9-tetrahydro-1H-carbazol-3-yl]methyl}methyl{[(2S)-8-methyl-2,3-dihydro[1,4]dioxino[2,3-f]quinolin-2-yl]methyl}amine monohydrochloride monohydrate] | 15.2 ± 0.74 nM | 293 nM | 34.8% | 3720 nM |  |  |  |
| CCC(C)N(C[C@H]1CCc2[nH]c3ccc(F)cc3c2C1)C[C@H]1COc2ccc3nc(C)ccc3c2O1 (stereo partly drawn) [Example 62, N-{[(3S)-6-Fluoro-2,3,4,9-tetrahydro-1H-carbazol-3-yl]methyl}-N-{[(2S)-8-methyl-2,3-dihydro[1,4]dioxino[2,3-f]quinolin-2-yl]methyl}butan-2-amine monohydrochloride monohydrate] | 730 ± 9.19 nM |  |  | 1960 nM |  |  |  |
| Cc1ccc2c3c(ccc2n1)OC[C@H](CN(C[C@@H]1CCc2[nH]c4ccc(F)cc4c2C1)C1CCCC1)O3 [Example 59, N-{[(3R)-6-Fluoro-2,3,4,9-tetrahydro-1H-carbazol-3-yl]methyl}-N-{[(2S)-8-methyl-2,3-dihydro[1,4]dioxino[2,3-f]quinolin-2-yl]methyl}cyclopentanamine monohydrochloride monohydrate] | 115 ± 16.4 nM | 362 nM | 81% | 3120 nM | 431 nM |  |  |
| Cc1ccc2c3c(ccc2n1)OC[C@H](CN(C[C@@H]1CCc2[nH]c4ccc(F)cc4c2C1)C(C)C)O3 [Example 57, N-{[(3R)-6-Fluoro-2,3,4,9-tetrahydro-1H-carbazol-3-yl]methyl}-N-{[(2S)-8-methyl-2,3-dihydro[1,4]dioxino[2,3-f]quinolin-2-yl]methyl}propan-2-amine monohydrochloride monohydrate] | 1130 ± 109 nM | 1570 nM |  | 6140 nM |  |  |  |
| Cc1ccc2c3c(ccc2n1)OC[C@H](CN[C@H]1CCc2c([nH]c4ccc(F)cc24)C1)O3 (single isomer, unassigned) [Example 48, dihydrochloride] | 31.9 ± 5.34 nM | 46.7 ± 2.07 nM |  | 7.4 nM |  | 168 nM |  |
| Cc1ccc2c3c(ccc2n1)OC[C@H](CN(C[C@H]1CCc2[nH]c4ccc(F)cc4c2C1)C1CCCCC1)O3 [Example 64, N-{[(3S)-6-Fluoro-2,3,4,9-tetrahydro-1H-carbazol-3-yl]methyl}-N-{[(2S)-8-methyl-2,3-dihydro[1,4]dioxino[2,3-f]quinolin-2-yl]methyl}cyclohexanamine monohydrochloride monohydrate] | 2490 ± 269 nM | 455 nM |  |  |  |  |  |
| Cc1ccc2c3c(ccc2n1)OC[C@H](CN[C@@H]1CCc2c([nH]c4ccc(F)cc24)C1)O3 (single isomer, unassigned) [Example 47, dihydrochloride] | 102 ± 7.07 nM | 12.8 nM | 59% | 186 nM | 300 nM |  |  |
| Cc1ccc2c3c(ccc2n1)OC[C@H](CN(C)C[C@@H]1CCc2c(c4cc(F)ccc4n2C)C1)O3 [Example 69, {[(3R)-6-Fluoro-9-methyl-2,3,4,9-tetrahydro-1H-carbazol-3-yl]methyl}methyl{[(2S)-8-methyl-2,3-dihydro[1,4]dioxino[2,3-f]quinolin-2-yl]methyl}amine monohydrochloride monohydrate] | 35.8 ± 0.71 nM | 220 nM | 63% | 1590 nM | 548 nM |  |  |
| Cc1ccc2c3c(ccc2n1)OC[C@H](CNC1CCc2c([nH]c4ccc(F)cc24)C1)O3 (mixture of isomers) [Example 46, 6-Fluoro-N-{[(2S)-8-methyl-2,3-dihydro[1,4]dioxino[2,3-f]quinolin-2-yl]methyl}-2,3,4,9-tetrahydro-1H-carbazol-2-amine] | 52.5 ± 1.73 nM | 8.55 nM |  | 231 nM | 155 nM |  | 70% |
| Cc1ccc2c3c(ccc2n1)OC[C@H](CN(C[C@@H]1CCc2[nH]c4ccc(F)cc4c2C1)C1CCCCC1)O3 [Example 60, N-{[(3R)-6-fluoro-2,3,4,9-tetrahydro-1H-carbazol-3-yl]methyl}-N-{[(2S)-8-methyl-2,3-dihydro[1,4]dioxino[2,3-f]quinolin-2-yl]methyl}cyclohexanamine monohydrochloride monohydrate] | 995 ± 24.4 nM | 394 nM |  |  |  |  |  |
| CCCN(CC1CCc2[nH]c3ccc(F)cc3c2C1)C[C@H]1COc2ccc3nc(C)ccc3c2O1 (stereo partly drawn) [Example 51, N-[(6-Fluoro-2,3,4,9-tetrahydro-1H-carbazol-3-yl)methyl]-N-{[(2S)-8-methyl-2,3-dihydro[1,4]dioxino[2,3-f]quinolin-2-yl]methyl}propan-1-amine dihydrochloride dihydrate] | 22.3 ± 3.32 nM | 88 nM | 59% | 1290 nM | 171 nM |  |  |
| Cc1ccc2c3c(ccc2n1)OC[C@H](CN(C[C@H]1CCc2[nH]c4ccc(F)cc4c2C1)C1CCCC1)O3 [Example 63, N-{[(3S)-6-Fluoro-2,3,4,9-tetrahydro-1H-carbazol-3-yl]methyl}-N-{[(2S)-8-methyl-2,3-dihydro[1,4]dioxino[2,3-f]quinolin-2-yl]methyl}cyclopentanamine monohydrochloride monohydrate] | 389 ± 38.2 nM | 113 nM | 73% |  | 1350 nM |  |  |
